Patent US11155668B2, “Contact-killing, QAC functionalized thermoplastic polyurethane for catheter applications” (THE UNIVERSITY OF AKRON, priority 2017, dated 2021)

Assays:
[1] = test system: P. aeruginosa; assay: 48 h biofilm formation assay in catheter tubing; type: cell-based, Pseudomonas aeruginosa (ATCC 27853)
Protocol: For post-fabrication functionalization of the inner lumen of allyl-TPU catheter tubing with Qx-SH reagents, 0.5 mL of an Ar purged solution containing Qx-SH (10.0 mM) and LAP (5.0 mM) was flowed through 25.0 cm segments of catheter tubing every 7.5 min for the duration of a 30 min pre-soak and 30 min UV treatment (or absence of UV for phys. ads. control). Following treatment, the catheter tubes were rinsed continuously for 30 s with DI water (3×), then rinsed continuously for 30 s with 10% EtOH (3×). All samples were blown dry with N2 and placed under vacuum for 24 h before X-ray photoelectron spectroscopy (XPS) analysis or ethylene oxide (EtO) sterilization.
(§1) For antimicrobial testing, blade-coated samples and catheter tubing of allyl-TPU were sterilized by EtO sterilization using an Anprolene benchtop sterilizer (Anderson Products, Inc., Haw River, N.C.) following the manufacturer's protocol to deliver approximately 0.5 cc·L^−1 of EtO gas over a 12 h sterilization cycle at 35% humidity and room temperature, followed by a 48 h purge under vacuum. The bacterial strains used in this study included Staphylococcus epidermidis (ATCC 12228), Staphylococcus aureus (25923), Escherichia coli (ATCC 25922), Pseudomonas aeruginosa (ATCC 27853), Enterococcus faecalis (ATCC 29212), and methicillin-resistant Staphylococcus aureus (MRSA) (ATCC BAA-41).
Biofilm formation was analyzed using overnight cultures of P. aeruginosa grown in TSB and adjusted to an OD600=0.10. An assembly of catheter tubing was prepared using aseptic techniques, and included COOK™ BEACON™ TIP TORCON NB™ Advantage catheter segments (25.0 cm in length) denoted as “CC” and numbered 1-4 from upstream (1) to downstream (4). The catheter assembly was connected using 18 gauge blunt tip stainless steel needles (˜25 mm in length) sterilized in 100% EtOH. CC segments were located before, after, and in between the untreated, phys. ads., and UV-treated allyl-TPU catheter segments modified with Q8-SH to account for any downstream influence of the experimental catheters. With a peristaltic pump flowing at 1.5 mL·min^−1, fresh bacterial inoculum was continuously streamed through the catheter assembly for 2 h, followed by FAB medium (0.10 mM CaCl2, 0.01 mM Fe-EDTA, 0.15 mM (NH4)2SO4, 0.33 mM Na2HPO4, 0.20 mM KH2PO4, 0.50 mM NaCl, 0.50% (wt/vol) casamino acids, 1.0 mM MgCl2, and 10 mM sodium citrate) for 48 h. Samples were fixed with 50 mL of a 4% paraformaldehyde solution, rinsed with 200 mL of PBS, and submerged in PBS for further testing.
Photographs of the catheter tubing were taken using a camera with a 16-megapixel Sony Exmor RS IMX240 sensor and […] lens. Catheter cross-sections were cut (ca. 2.5 mm in length) from each catheter segment, rinsed thoroughly with DI water, and lyophilized for 24 h for scanning electron microscopy (SEM) analysis. SEM was performed on gold sputter-coated samples using a JEOL-7401 Field Emission Scanning Electron Microscope (JEOL USA, Inc., Peabody, Mass.) at an accelerating voltage of 2.0 kV under 45× and 300× magnification. In addition, lyophilized cross-sections (3.0 mm in length) from randomly selected locations along each catheter segment were placed vertically on a glass slide and imaged under brightfield microscope at 4× magnification. Using Olympus VS-Desktop software, the % biofilm blockage was determined by measuring the inner luminal area of untreated catheters compared to the area of the biofilm on the interior of the contaminated catheters (Equation 1).
[formula] Results are reported as averages with standard deviations (n=3) for each catheter segment.

[2] = test system: S. epidermidis; assay: Contact-killing assay (adapted from ISO 22196) on allyl-TPU blade-coated samples modified with Qx-SH; type: cell-based, Staphylococcus epidermidis (ATCC 12228); details: n = 2, negative control polypropylene 0.93 (±0.03) × 10^5
Protocol: To functionalize the allyl-TPU blade-coated samples with Qx-SH reagents, thiol-ene reactions were performed using the same procedure described for rhodamine-SH. Briefly, blade-coated films of allyl-TPU (250 μm thick, 2.0 cm diameter, ca. 110 mg, 20 μmol allyl) were submerged in 2 mL of an Ar purged (30 min) aqueous solution containing Qx-SH (10.0 mM) and LAP (5.0 mM), and allowed to pre-soak for 30 min under Ar. UV-treated samples were irradiated for 30 min (λ=365 nm, I=1.2 mW·cm^−2) while phys. ads. samples were kept in the absence of UV light for 30 min to control for any antimicrobial activity that is contributed by non-covalently attached QAC. Following treatment, the dye/photoinitiator solutions were drawn up and discarded, and the samples were rinsed with 5 mL of DI water (3×) then submerged in 5 mL of DI water. The samples were further rinsed with 10% EtOH (3×) and soaked in 10% EtOH for 15 min (3×), rinsing with 10% EtOH in between each soak.
as §1
The contact-killing assay was performed on physically adsorbed (phys. ads.), and UV-treated blade-coated samples modified with a series of Qx-SH reagents using a method adapted from ISO 22196. See, International Organization for Standardization. Measurement of antibacterial activity on plastics and other non porous surfaces (ISO 22196:2011), the disclosure of which is incorporated herein by reference in its entirety. Briefly, the samples were inoculated with same day cultures of select bacteria (e.g. E. coli, S. epidermidis) in dilute nutrient media (0.2% tryptic soy broth (TSB) in 1× phosphate buffered saline (PBS)) at approximately 150 colony-forming units (CFU)·mm^−2. Generally, 35 uL of 8.5×10^5 CFU/mL cultures were dispersed across the surface of the sample using sterile polypropylene cover films (area=198 mm^2). Inoculated samples were incubated in a humidified room air incubator (36° C., ca. 80% rel. humidity) for 20 h. Following incubation, surviving cells were recovered from the samples using vigorous agitation (i.e. vortexing for 20 s in PBS). Surviving cells were enumerated via 10-fold series dilution and plating 100 μL onto tryptic soy agar (TSA), incubating overnight and then plate counting CFU. The mean CFU recovered per sample (CFU/sample) were calculated by accounting for dilutions. Internal controls samples of polypropylene and chlorhexidine treated with polypropylene were included in the assay.

[3] = UV-treated allyl-TPU catheter, 48 h
[4] = phys. ads. allyl-TPU catheter, 48 h

CCCCCCCC[N+](C)(C)CCCCCCCCOC(=O)CCS.[Cl-] [Q8-SH]
biofilm formation compared to Cook catheter, untreated and phys. ads. controls (in words) ([1]; UV-treated allyl-TPU catheter tubing, brightfield microscopy and SEM): more resistant to biofilm formation and less | % biofilm blockage (internal volume occlusion) ([1]; UV-treated allyl-TPU catheter, inner lumen modified, 48 h, n=3): ca. 15% | reduction of biofilm blockage from CC1 [1, 3]: 85% | reduction of biofilm blockage from the untreated control [1, 3]: 69% | reduction of biofilm blockage from CC1 [1, 4]: 77% | reduction of biofilm blockage from the untreated control [1, 4]: 53% | Mean CFU/Sample Recovered, S.epidermidis ([2]; UV-treated samples): 0.00 ± 0.00 CFU/Sample | Mean CFU/Sample Recovered, S.epidermidis ([2]; phys. ads. samples): 0.00 ± 0.00 CFU/Sample
